Data: ChEMBL document CHEMBL3112467, “In vitro phenotypic screening of 7-chloro-4-amino(oxy)quinoline derivatives as putative anti-Trypanosoma cruzi agents” (Bioorg Med Chem Lett, 2014)
pIC50: −log10 of the molar value.

What was measured:
[1] = Selectivity index, ratio of LC50 for mouse NCTC-929 cells to IC50 for epimastigote stage of Trypanosoma cruzi CL Brener; format: toxicity, cell-based; conditions: read-out: Ratio LC50/IC50
[2] = Cytotoxicity against mouse NCTC-929 cells after 48 hrs by resazurin staining-based fluorescence assay; format: cell-based; conditions: read-out: LC50
[3] = Cytotoxicity against mouse NCTC-929 cells at […] after 48 hrs by resazurin staining-based fluorescence assay; format: cell-based; conditions: read-out: INH
[4] = tested on: Trypanosoma cruzi; assay: Antimicrobial activity against epimastigote stage of Trypanosoma cruzi CL Brener assessed as growth inhibition after 72 hrs by beta-galactosidase reporter gene assay; format: functional, organism-based
[5] = tested on: Trypanosoma cruzi; assay: Antimicrobial activity against epimastigote stage of Trypanosoma cruzi CL Brener assessed as growth inhibition at […] after 72 hrs by beta-galactosidase reporter gene assay; format: functional; conditions: read-out: GI
[6] = tested on: Trypanosoma cruzi; assay: Antimicrobial activity against amastigote stage of Trypanosoma cruzi CL Brener infected in mouse NCTC-929 cells assessed as growth inhibition at 0.5 uM after 7 days by beta-galactosidase reporter gene assay; format: functional; conditions: NCTC-929, 168 h, read-out: GI
[7] = tested on: Trypanosoma cruzi; assay: Antimicrobial activity against amastigote stage of Trypanosoma cruzi CL Brener infected in mouse NCTC-929 cells assessed as growth inhibition at 1 uM after 7 days by beta-galactosidase reporter gene assay; format: functional; conditions: NCTC-929, 168 h, read-out: GI
[8] = tested on: Trypanosoma cruzi; assay: Antimicrobial activity against amastigote stage of Trypanosoma cruzi CL Brener infected in mouse NCTC-929 cells assessed as growth inhibition at 2 uM after 7 days by beta-galactosidase reporter gene assay; format: functional; conditions: NCTC-929, 168 h, read-out: GI
[9] = tested on: Trypanosoma cruzi; assay: Antimicrobial activity against amastigote stage of Trypanosoma cruzi CL Brener infected in mouse NCTC-929 cells assessed as growth inhibition at 4 uM after 7 days by beta-galactosidase reporter gene assay; format: functional; conditions: NCTC-929, 168 h, read-out: GI
[10] = tested on: Trypanosoma cruzi; assay: Antimicrobial activity against amastigote stage of Trypanosoma cruzi CL Brener infected in mouse NCTC-929 cells assessed as growth inhibition at 8 uM after 7 days by beta-galactosidase reporter gene assay; format: functional; conditions: NCTC-929, 168 h, read-out: GI
[11] = tested on: Trypanosoma cruzi; assay: Antimicrobial activity against amastigote stage of Trypanosoma cruzi CL Brener infected in mouse NCTC-929 cells assessed as growth inhibition at 16 uM after 7 days by beta-galactosidase reporter gene assay; format: functional; conditions: NCTC-929, 168 h, read-out: GI
[12] = tested on: Trypanosoma cruzi; assay: Antimicrobial activity against amastigote stage of Trypanosoma cruzi CL Brener infected in mouse NCTC-929 cells assessed as growth inhibition at 32 uM after 7 days by beta-galactosidase reporter gene assay; format: functional; conditions: NCTC-929, 168 h, read-out: GI
[13] = in vitro; conditions: mouse, NCTC-929 cells
Description: Selectivity index, ratio of LC50 for mouse NCTC-929 cells to IC50 for amastigote stage of Trypanosoma cruzi CL Brener infected in mouse NCTC-929 cells

[14] = tested on: Trypanosoma cruzi; assay: Antimicrobial activity against amastigote stage of Trypanosoma cruzi CL Brener infected in mouse NCTC-929 cells assessed as growth inhibition after 7 days by beta-galactosidase reporter gene assay; format: functional, organism-based; conditions: NCTC-929, 168 h

## Clc1ccc2c(NCc3ccccc3)ccnc2c1
[1]
  selectivity ratio: 3.71
[2]
  CC50 at 48 h: 2.28 µM
[3]
  cytotoxicity at 48 h, […]: 71.4%
[4]
  pIC50: 5.18
[5]
  inhibition of growth at […]: 95.1%

## O=C(Cn1ccnc1[N+](=O)[O-])NCc1ccccc1 [BENZNIDAZOLE]
[6]
  inhibition of growth at 0.5 µM: 41.6%
[7]
  inhibition of growth at 1 µM: 55.6%
[8]
  inhibition of growth at 2 µM: 64.4%
[9]
  inhibition of growth at 4 µM: 74.7%
[10]
  inhibition of growth at 8 µM: 96.6%
[11]
  inhibition of growth at 16 µM: 100%
[12]
  inhibition of growth at 32 µM: 100%
[1]
  selectivity ratio: > 9.44
[2]
  CC50 at 48 h: > 256 µM
[3]
  cytotoxicity at 48 h, […]: 17.4%
[5]
  inhibition of growth at […]: 82%
[13]
  selectivity ratio: > 320

## CC1CS(=O)(=O)CCN1/N=C/c1ccc([N+](=O)[O-])o1 (stereo unspecified) [NIFURTIMOX]
[14]
  pIC50: > 6.30
[6]
  inhibition of growth at 0.5 µM: 96.5%
[7]
  inhibition of growth at 1 µM: 100%
[8]
  inhibition of growth at 2 µM: 100%
[9]
  inhibition of growth at 4 µM: 100%
[10]
  inhibition of growth at 8 µM: 100%
[11]
  inhibition of growth at 16 µM: 100%
[12]
  inhibition of growth at 32 µM: 100%
[3]
  cytotoxicity at 48 h, […]: 26.8%
[5]
  inhibition of growth at […]: 100%

## O=C1CSC(c2ccc3c(c2)OCO3)N1CCNc1ccnc2cc(Cl)ccc12 (stereo unspecified)
[1]
  selectivity ratio: 2.85
[2]
  CC50 at 48 h: 19.5 µM
[4]
  pIC50: 5.16
[5]
  inhibition of growth at […]: 84.3%
